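Results reflect a 48-hour exposure of cells in 96-well plates to compound at five concentrations. Abbreviation: GI50, concentration required for 50% inhibition of growth. TGI: concentration producing complete growth inhibition.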 A value given as a limit tells only on which side of the number the result lay.

Among the test systems are HS 578T breast; MDA-MB-435; M14 melanoma; ACHN renal; COLO 205 colon; RPMI-8226 leukemia; K-562 leukemia; MALME-3M melanoma; CCRF-CEM leukemia; RXF 393 renal.
What all share (experiment): DTP human tumour cell line panel, 48 h

For the compound `N#CC(c1ccccc1)c1cccc2ccccc12` (stereo not drawn), the TGI is greater than 100 µM with HS 578T breast; 44.1 µM in the experiment with MDA-MB-435; 96.4 µM with M14 melanoma; greater than 100 µM in the experiment with ACHN renal; greater than 100 µM in the experiment with COLO 205 colon; 67.9 µM with RPMI-8226 leukemia. For the same compound, the TGI in the experiment on K-562 leukemia is greater than 100 µM; in the experiment with MALME-3M melanoma it was 50.7 µM.
For `COc1ccc(-c2cn3ccnc3c(-c3ccc4ncn(C5CCCCC5)c4c3)n2)cc1`, the GI50 in the experiment on HS 578T breast is 1.16 µM; with MDA-MB-435, 0.312 µM; in the experiment on M14 melanoma it was 0.612 µM; in the experiment with ACHN renal it was 0.692 µM; in the experiment with COLO 205 colon it was 2.22 µM; in the experiment on RPMI-8226 leukemia, 2.96 µM. For the same compound, the GI50 in the experiment on CCRF-CEM leukemia is 1.64 µM; in the experiment on K-562 leukemia it was 0.422 µM; in the experiment with MALME-3M melanoma, 43.1 µM. Moreover, the TGI in the experiment with HS 578T breast is 49.3 µM; in the experiment on MDA-MB-435 it was greater than 100 µM; in the experiment with M14 melanoma it was greater than 100 µM; in the experiment on ACHN renal, greater than 100 µM; with COLO 205 colon, 14.4 µM; in the experiment on RPMI-8226 leukemia, greater than 100 µM. Moreover, the TGI in the experiment with CCRF-CEM leukemia, in the experiment with K-562 leukemia and in the experiment on MALME-3M melanoma was greater than 100 µM in each case.
`O=C1/C(=C/c2cccs2)N=C(c2ccccc2)N1C1Nc2cc3c(cc2S1)NC(N1C(=O)/C(=C/c2cccs2)N=C1c1ccccc1)S3` (stereo not drawn): the TGI in the experiment on HS 578T breast was 61.5 µM; with MDA-MB-435, 42.6 µM; with M14 melanoma, 37.1 µM; with ACHN renal, greater than 100 µM; in the experiment on RXF 393 renal, 78.8 µM; in the experiment with RPMI-8226 leukemia, 51.7 µM. This compound also came in with a concentration for total growth inhibition (TGI) in the experiment on K-562 leukemia greater than 100 µM.
Consider `O=C1CC(c2cccc(Cl)c2)n2cccc21` (stereo not drawn), for which the TGI in the experiment with HS 578T breast, with MDA-MB-435, in the experiment on M14 melanoma, in the experiment on ACHN renal, in the experiment with RXF 393 renal and in the experiment on COLO 205 colon was greater than 100 µM each time. In addition, the total growth inhibition concentration (TGI) with RPMI-8226 leukemia, in the experiment on CCRF-CEM leukemia and with K-562 leukemia was greater than 100 µM in each case.
Take `Cc1nc2c(Br)cc(Br)cc2c(=O)n1-c1ccccc1N`: the TGI is greater than 100 µM in the experiment on HS 578T breast; greater than 100 µM with MDA-MB-435; greater than 100 µM in the experiment with M14 melanoma; greater than 100 µM with ACHN renal; 44 µM in the experiment with COLO 205 colon; greater than 100 µM in the experiment on CCRF-CEM leukemia. For the same compound, the TGI in the experiment on K-562 leukemia and with MALME-3M melanoma was greater than 100 µM each time.
With `COc1ccc(CN=CN/C(C#N)=C(\N)C#N)cc1OC`, the TGI in the experiment with HS 578T breast, in the experiment on MDA-MB-435, in the experiment with M14 melanoma, in the experiment with ACHN renal, with COLO 205 colon and with RPMI-8226 leukemia was greater than 100 µM each time. In addition, the TGI in the experiment with CCRF-CEM leukemia, in the experiment with K-562 leukemia and in the experiment on MALME-3M melanoma was greater than 100 µM throughout.
Regarding `COc1cccc(-c2cc(=O)c3cc(C)cnc3[nH]2)c1`, the TGI is greater than 100 µM in the experiment on HS 578T breast; 0.0686 µM with MDA-MB-435; greater than 69.6 µM with M14 melanoma; greater than 100 µM in the experiment with ACHN renal; 1.39 µM in the experiment on COLO 205 colon; 29.6 µM in the experiment with RPMI-8226 leukemia. Besides, the TGI in the experiment on CCRF-CEM leukemia, in the experiment with K-562 leukemia and with MALME-3M melanoma was greater than 100 µM throughout.
In the case of `Cc1nnc2c3c(-c4ccccc4)c(-c4ccccc4)oc3nc(N(C)C)n12`, the TGI with HS 578T breast, with MDA-MB-435, in the experiment with M14 melanoma, in the experiment on ACHN renal, with RXF 393 renal and in the experiment with COLO 205 colon was greater than 100 µM throughout. Moreover, the figures for the TGI with RPMI-8226 leukemia, in the experiment on CCRF-CEM leukemia and with K-562 leukemia were 82.3 µM, greater than 100 µM and greater than 100 µM, respectively.
Regarding `CC1(C)CCOC(=O)C(Cl)CC1Cl` (stereo not drawn), the TGI with HS 578T breast, in the experiment on MDA-MB-435, in the experiment with M14 melanoma, in the experiment with ACHN renal, with RXF 393 renal and with COLO 205 colon was greater than 100 µM in each case. Further, the TGI in the experiment with CCRF-CEM leukemia, with K-562 leukemia and in the experiment with MALME-3M melanoma was greater than 100 µM throughout.
On to `CC(NC(=O)c1ccc(OP(=O)(OCC2=CC(=O)c3ccccc3C2=O)N(C)CCCCCl)cc1)c1ccc(OCC2CCCCC2)c(C(N)=O)c1` (stereo not drawn), for which the TGI in the experiment on HS 578T breast was found to be 21.7 µM; with MDA-MB-435 it was 5.68 µM; in the experiment with M14 melanoma, 13 µM; in the experiment with ACHN renal, 29.2 µM; in the experiment with COLO 205 colon, 20.6 µM; in the experiment on RPMI-8226 leukemia, 30.6 µM. For the same compound, the TGI with CCRF-CEM leukemia worked out at 30.6 µM; with K-562 leukemia it was 43.1 µM; with MALME-3M melanoma, 3.97 µM.
Take `CC1=C(C#N)S(=O)(=O)c2c(oc(C)c2C)N1`: the TGI with HS 578T breast, in the experiment on MDA-MB-435, in the experiment with M14 melanoma, in the experiment with ACHN renal, with RPMI-8226 leukemia and in the experiment on K-562 leukemia was greater than 100 µM each time. Also, in the experiment on MALME-3M melanoma, the TGI was greater than 100 µM.
In the case of `CCOC(=O)/C=C(/C(=O)OCC)n1cc(C)c(=O)n(Cc2cnnn2CCCCOC(C)=O)c1=O`, the TGI in the experiment with HS 578T breast is greater than 100 µM; in the experiment on MDA-MB-435, 87.2 µM; in the experiment with ACHN renal it was 23.9 µM; with RXF 393 renal, greater than 100 µM; in the experiment with COLO 205 colon, 56.7 µM; in the experiment with RPMI-8226 leukemia, 46.2 µM. Besides, the TGI with CCRF-CEM leukemia is 4.57 µM; in the experiment with K-562 leukemia, greater than 100 µM.
With `CN(C)c1ccc(/C=C2\N=C(c3ccccc3)N(c3nc4c(Cl)cc(Cl)cc4s3)C2=O)cc1`, the TGI with HS 578T breast was greater than 100 µM; in the experiment on MDA-MB-435, 67.6 µM; with M14 melanoma it was greater than 100 µM; with ACHN renal it was greater than 100 µM; in the experiment with COLO 205 colon, greater than 100 µM; in the experiment with RPMI-8226 leukemia it was 77.5 µM. In addition, the figures for the TGI with CCRF-CEM leukemia and in the experiment with K-562 leukemia were 23.6 µM and greater than 100 µM, respectively.
In the case of `COc1cc2c(cc1OCCCC(=O)Nc1cc(C(=O)Nc3cc(C(=O)NCCCN(C)C)n(C)n3)n(C)n1)N=CC1CCCN1C2=O` (stereo not drawn), the TGI in the experiment with MDA-MB-435 turned out to be 39 µM; in the experiment with M14 melanoma it was 33.8 µM; with ACHN renal, 29.7 µM; in the experiment on RXF 393 renal it was 33.6 µM; in the experiment on COLO 205 colon, 26.3 µM; in the experiment on RPMI-8226 leukemia, 40.3 µM. Besides, the figures for the concentration for total growth inhibition (TGI) in the experiment on CCRF-CEM leukemia, with K-562 leukemia and in the experiment with MALME-3M melanoma were 29.7 µM, 27.7 µM and 31.5 µM, respectively.
In the case of `CC(=O)C(=C(I)I)c1ccccc1`, the TGI with MDA-MB-435 was 29.9 µM; in the experiment on M14 melanoma it was 31.6 µM; in the experiment on ACHN renal it was 35.2 µM; with RXF 393 renal, 46.4 µM; in the experiment with COLO 205 colon, 28.9 µM; in the experiment with CCRF-CEM leukemia it was 31.7 µM. Moreover, the TGI with K-562 leukemia came to 53.5 µM; with MALME-3M melanoma it was 25.6 µM.
For `Clc1ccc(OCc2nnc(CCCCCCCCc3nnc(COc4ccc(Cl)cc4Cl)o3)o2)c(Cl)c1`, the TGI in the experiment on MDA-MB-435, with M14 melanoma, in the experiment with ACHN renal, in the experiment on RXF 393 renal, with COLO 205 colon and with RPMI-8226 leukemia was greater than 100 µM throughout. Also, the TGI in the experiment with K-562 leukemia and in the experiment with MALME-3M melanoma was greater than 100 µM throughout.
Consider `Nc1cc(CO)cc(Nc2c3ccccc3nc3occc23)c1`, for which the TGI in the experiment on HS 578T breast was 83.8 µM; in the experiment on MDA-MB-435 it was 41.9 µM; in the experiment with M14 melanoma, 93.2 µM; in the experiment with ACHN renal it was greater than 100 µM; in the experiment on COLO 205 colon it was 85.7 µM; in the experiment with RPMI-8226 leukemia it was greater than 100 µM. In addition, the TGI in the experiment with CCRF-CEM leukemia and with MALME-3M melanoma was greater than 100 µM throughout.
For the compound `CC(=O)Nc1ccc(Nc2nc(=O)[nH]c(=O)[nH]2)cc1`, the TGI with HS 578T breast, in the experiment with MDA-MB-435, in the experiment on M14 melanoma, in the experiment on ACHN renal, in the experiment on COLO 205 colon and in the experiment with RPMI-8226 leukemia was greater than 100 µM in each case. The TGI in the experiment with CCRF-CEM leukemia and in the experiment on MALME-3M melanoma was greater than 100 µM each time.
With `Brc1ccc2c(c1)C1=C(CO2)Cc2ccccc2O1`, the TGI is 45.1 µM in the experiment on MDA-MB-435; 35 µM in the experiment with M14 melanoma; 33.3 µM with ACHN renal; 31.5 µM in the experiment with COLO 205 colon; 61.8 µM in the experiment with RPMI-8226 leukemia; greater than 100 µM in the experiment with CCRF-CEM leukemia. For the same compound, the results for the TGI with K-562 leukemia and with MALME-3M melanoma were greater than 100 µM and 38.2 µM, respectively.
With `COc1ccc(-c2cc(-c3ccc(Nc4ccnc5cc(Cl)ccc45)cc3)nc(N)c2C#N)c2ccccc12`, the TGI in the experiment with MDA-MB-435, in the experiment on M14 melanoma, in the experiment on ACHN renal, in the experiment with RXF 393 renal, in the experiment with COLO 205 colon and in the experiment on RPMI-8226 leukemia was greater than 100 µM each time. Moreover, the TGI in the experiment with CCRF-CEM leukemia, with K-562 leukemia and with MALME-3M melanoma was greater than 100 µM in each case.
`CSc1n[n+](C)cc(N)c1N`: the TGI in the experiment with MDA-MB-435, in the experiment with M14 melanoma, in the experiment with ACHN renal, in the experiment on COLO 205 colon, in the experiment with RPMI-8226 leukemia and with CCRF-CEM leukemia was greater than 100 µM in each case. Also, the TGI with K-562 leukemia and in the experiment on MALME-3M melanoma was greater than 100 µM each time.
With `CC(NCCS(=O)(=O)O)C(=O)O` (stereo not drawn), the TGI in the experiment with RXF 393 renal, in the experiment on COLO 205 colon, with RPMI-8226 leukemia, in the experiment with CCRF-CEM leukemia, in the experiment with K-562 leukemia and in the experiment with MALME-3M melanoma was greater than 100 µM throughout.
Take `O=C(CCCC(=O)N1CC(CCl)c2ccc([N+](=O)[O-])cc21)N1CC(CCl)c2ccc([N+](=O)[O-])cc21` (stereo not drawn): the TGI with MDA-MB-435, in the experiment on M14 melanoma, with ACHN renal, in the experiment on RXF 393 renal, with COLO 205 colon and in the experiment with RPMI-8226 leukemia was greater than 100 µM in each case. For the same compound, the TGI in the experiment with CCRF-CEM leukemia and in the experiment with K-562 leukemia was greater than 100 µM throughout.

Source of the values: PubChem BioAssay (NCI).
